For data set [1], the system named is HTLV-III. The experiment in a line: Anti-AIDS activity, infected cell rate of MT-4 cells infected with HTLV-III at the 6th day (Example 9). Format: cell-based. Conditions: for anti-AIDS virus activity, in words: Example 9. As for the experimental part:
To MT-4 cells (30×10^4 /ml) cultured in RPMI-1640 medium containing 10% bovine serum, was inoculated HTLV-III, and the suspension was incubated at 37° C. for 1 hour to cause the adsorption of the virus. The cell:virus ratio was 500:1. The cells were then washed, and cultured with or without various doses of the test substances (same as those of Example 1) at 37° C. under 5% CO2 for 3 days, after which cell growth, viability, and percentage of infected cells were recorded. The infected cells were distinguished from the uninfected cells by an indirect immuno-fluorescence method. Thus, the cultured cells were fixed with cold methanol on a slide glass, reacted with antibody to the HTLV-III-specific antigens, and further with the secondary antibody (having a fluororescent label). The results are shown in FIGS. 9-29, wherein, .gradient., .increment. and .quadrature. show the controls without virus, and show the infection experiments with HTLV-III. The cell growth is indicated in number of cells, the viability (%) in number of viable cells ×100/number of total cells, and the infected cell rate (%) in number of fluorescent-positive cells x 100/number of total cells.
In order to examine the correlation between the anti-AIDS virus activity and the molecular structure (especially, molecular weight and S-content or number of sulfate group in this case) of various test substances including those used in Examples 1-7, the anti-AIDS activities were evaluated for the various naturally occurring polysaccharides, polysaccharides having a sulfate group, mucopolysaccharides, mucopolysaccharide sulfate, and mucopolysaccharide polysulfate. Further, similar experiments were carried out with various other sulfates which were synthetically obtained. The experimental procedures employed are identical to that in the preceding experiments. The cultured MT-4 cells were infected with HTLV-III and the inhibitory effects of various test substances on the infected cell rate (number of fluorescent cell×100/ total cell, %) were determined at the 6th day.

In data set [2] the test system is MT-4 cells. Description: Cytotoxicity, MT-4 cells cultured without virus (Examples 4 and 8). Format: cell-based, human. Conditions: without virus; for Viability: 0 μg/ml gives 87; for Cell number: 0 μg/ml gives 124. An excerpt:
The cell:virus ratio was 500:1. […] The infected cells were distinguished from the uninfected cells by an indirect immuno-fluorescence method. Thus, the cultured cells were fixed with cold methanol on a slide glass, reacted with antibody to the HTLV-III-specific antigens, and further with the secondary antibody (having a fluororescent label). […] The cell growth is indicated in number of cells, the viability (%) in number of viable cells ×100/number of total cells, and the infected cell rate (%) in number of fluorescent-positive cells x 100/number of total cells.

In data set [3] the test system is mice. Particulars: cited from earlier work.
The mark [4] stands for this setting: 10 μg/ml, 6th day, control without test substance 100%.
Where [5] appears, read: 100 μg/ml, 6th day, control without test substance 100%.
Where [6] appears, read: 1000 μg/ml, 6th day, control without test substance 100%.
Where [7] appears, read: 10 μg/ml, 6th day, control without test substance 100%, 8640 min.
Where [8] appears, read: 100 μg/ml, 6th day, control without test substance 100%, 8640 min.
Setting [9] is: 1 μg/ml, listed as Sodium dextran sulfate (molecular weight: 5000, S-content: 13%).
[10] abbreviates: 10 μg/ml, listed as Sodium dextran sulfate (molecular weight: 5000, S-content: 13%).
Where [11] appears, read: 100 μg/ml, listed as Sodium dextran sulfate (molecular weight: 5000, S-content: 13%).

Read-outs that look alike come from different tables or passages of the source.

The compound `O=C[C@H](O)[C@@H](O)[C@H](O)[C@H](O)COS(=O)(=O)O` [Glucose-6-sulfate, reference compound] came in with an activity at 10 µg/mL in data set [1] (Human immunodeficiency virus 1, MT4, 144 h, 10 μg/ml, 6th day, control without test substance 100%) of 100%. Besides, the activity at 100 µg/mL in data set [1] (Human immunodeficiency virus 1, MT4, 144 h, 100 μg/ml, 6th day, control without test substance 100%) is 100%. The compound further had an activity at 1000 µg/mL in data set [1] (Human immunodeficiency virus 1, MT4, 144 h, 1000 μg/ml, 6th day, control without test substance 100%) of 100%.
With Agarose [reference compound], the “Infected cell (%)” value in data set [1] (setting [4]) and in data set [1] (setting [5]) was 100% in each case.
Turning to Chitosan sulfate, the “Infected cell (%)” value in data set [1] (setting [4]) and in data set [1] (setting [5]) was 1% each time. Moreover, the “anti-AIDS virus activity, in words” value in data set [1] is “particularly strong”.
Consider Chondroitin-4-sulfate polysulfate, for which the “Infected cell (%)” value in data set [1] (setting [4]) is 2%; in data set [1] (setting [5]), 1%. The “anti-AIDS virus activity, in words” value in data set [1] was “particularly strong”.
With Chitosan [reference compound], the “Infected cell (%)” value in data set [1] (setting [4]) and in data set [1] (setting [5]) was 100% in each case.
In the case of Alginic acid sulfate, the “Infected cell (%)” value stood at 7% in data set [1] (setting [4]) and 4% in data set [1] (setting [5]). Moreover, in data set [1], the “anti-AIDS virus activity, in words” value was “particularly strong”.
“Dextran [Dextran 9,000, reference compound]”: the “Infected cell (%)” value in data set [1] (setting [4]) and in data set [1] (setting [5]) was 100% throughout.
Consider `OC[C@H]1O[C@H](OC[C@H]2O[C@H](O[C@]3(CO)O[C@H](CO)[C@@H](O)[C@@H]3O)[C@H](O)[C@@H](O)[C@@H]2O)[C@H](O)[C@@H](O)[C@H]1O` [raffinose, reference compound], for which the “anti-AIDS virus activity, in words” value in data set [1] was “None”.
Take “N-acetylglucosamine polysulfate [reference compound]”: the “Infected cell (%)” value in data set [1] (setting [4]), in data set [1] (setting [5]) and in data set [1] (setting [6]) was 100% each time.
Turning to .iota.-Carrageenan, the Viability in data set [2] (1 μg/ml) came out at 94%; in data set [2] (10 μg/ml), 93%; in data set [2] (100 μg/ml) it was 80%. The Cell number in data set [2] (1 μg/ml) is reported as 135 ×10^4 cells/ml; in data set [2] (10 μg/ml), 128 ×10^4 cells/ml; in data set [2] (100 μg/ml), 144 ×10^4 cells/ml. For the same compound, the “Infected cell (%)” value in data set [1] (setting [4]) is 100%; in data set [1] (setting [5]), 31%.
Turning to Chondroitin-6-sulfate polysulfate, the “Infected cell (%)” value came to 2% in data set [1] (setting [4]) and 1% in data set [1] (setting [5]). Further, the “anti-AIDS virus activity, in words” value in data set [1] is on record as “particularly strong”.
On to Dextran sulfate [Dextran sulfate 3,500], for which the results for the “Infected cell (%)” value in data set [1] (setting [7]), in data set [1] (setting [8]) and in data set [1] (setting [6]) were 100%, 82% and 1%, respectively.
Dextran sulfate [Dextran sulfate 5,000]: the Viability in data set [2] (setting [9]) is on record as 90%; in data set [2] (setting [10]) it was 92%; in data set [2] (setting [11]) it was 93%. In addition, the Cell number is 123 ×10^4 cells/ml in data set [2] (setting [9]), 127 ×10^4 cells/ml in data set [2] (setting [10]) and 121 ×10^4 cells/ml in data set [2] (setting [11]). Further, the “Infected cell (%)” value is given as 18% in data set [1] (setting [7]) and 0% in data set [1] (setting [8]).
For the compound “Chondroitin-4-sulfate [reference compound]”, the “Infected cell (%)” value in data set [1] (setting [4]) and in data set [1] (setting [5]) was 100% each time.
“Glucose-polysulfate [reference compound]”: the “Infected cell (%)” value in data set [1] (setting [4]), in data set [1] (setting [5]) and in data set [1] (setting [6]) was 100% in each case.
Take Alginic acid [reference compound]: the “Infected cell (%)” value in data set [1] (setting [4]) and in data set [1] (setting [5]) was 100% each time.
On to “Chondroitin-6-sulfate [reference compound]”, for which the “Infected cell (%)” value in data set [1] (setting [4]) and in data set [1] (setting [5]) was 100% each time.
Turning to “Dextran sulfate [Dextran sulfate 500,000]”, the “Infected cell (%)” value in data set [1] (setting [7]) is 20%; in data set [1] (setting [8]), 0%.
In the case of Heparitin sulfate [reference compound], the “Infected cell (%)” value in data set [1] (setting [4]) turned out to be 100%; in data set [1] (setting [5]) it was 90%.
Consider sodium chondroitin sulfate, for which the “acute toxicity (LD50)” value in data set [3] (intraperitoneally) is recorded as ≥ 4,000 mg/kg; in data set [3] (orally), ≥ 7,500 mg/kg.
In the case of inulin [reference compound], the “anti-AIDS virus activity, in words” value in data set [1] was “None”.
Consider λ-Carrageenan, for which the Viability in data set [2] (1 μg/ml) is given as 89%; in data set [2] (10 μg/ml), 94%; in data set [2] (100 μg/ml), 94%. The Cell number in data set [2] (1 μg/ml) is reported as 147 ×10^4 cells/ml; in data set [2] (10 μg/ml) it was 203 ×10^4 cells/ml; in data set [2] (100 μg/ml) it was 83 ×10^4 cells/ml. The “Infected cell (%)” value in data set [1] (setting [4]) came out at 3%; in data set [1] (setting [5]), 1%. Further, in data set [1], the “anti-AIDS virus activity, in words” value is recorded as “particularly strong”.
Regarding Dextran sulfate [Dextran sulfate 8,000], the “Infected cell (%)” value was found to be 25% in data set [1] (setting [7]) and 0% in data set [1] (setting [8]).
For the compound dextran sulfate, in data set [1], the “anti-AIDS virus activity, in words” value is “particularly strong”.
Consider κ-Carrageenan, for which the Viability is reported as 93% in data set [2] (1 μg/ml), 93% in data set [2] (10 μg/ml) and 92% in data set [2] (100 μg/ml). The figures for the Cell number in data set [2] (1 μg/ml), in data set [2] (10 μg/ml) and in data set [2] (100 μg/ml) were 147 ×10^4 cells/ml, 149 ×10^4 cells/ml and 111 ×10^4 cells/ml, respectively. Besides, the “Infected cell (%)” value in data set [1] (setting [4]) came out at 95%; in data set [1] (setting [5]), 1%.
Hyaluronic acid [reference compound]: the “Infected cell (%)” value in data set [1] (setting [4]) and in data set [1] (setting [5]) was 100% throughout.
As to methylcellulose [reference compound], the “anti-AIDS virus activity, in words” value in data set [1] is “None”.
As for Chondroitin [reference compound], the “Infected cell (%)” value in data set [1] (setting [4]) and in data set [1] (setting [5]) was 100% in each case.
Take Dermatan sulfate [reference compound]: the “Infected cell (%)” value in data set [1] (setting [4]) was found to be 100%; in data set [1] (setting [5]), 80%.
In the case of pectin [reference compound], in data set [1], the “anti-AIDS virus activity, in words” value is “None”.
As for Hyaluronic acid sulfate, the results for the “Infected cell (%)” value in data set [1] (setting [4]) and in data set [1] (setting [5]) were 100% and 70%, respectively.
The corresponding values for Chitin sulfate are 100% and 81%.
Keratan sulfate [reference compound]: the results for the “Infected cell (%)” value in data set [1] (setting [4]) and in data set [1] (setting [5]) were 100% and 80%, respectively.
In the case of colominic acid [reference compound], the “anti-AIDS virus activity, in words” value in data set [1] is “None”.
In the case of Fucoidin, the values for the Viability in data set [2] (1 μg/ml), in data set [2] (10 μg/ml) and in data set [2] (100 μg/ml) were 92%, 99% and 93%, respectively. Besides, the Cell number in data set [2] (1 μg/ml) is recorded as 141 ×10^4 cells/ml; in data set [2] (10 μg/ml), 112 ×10^4 cells/ml; in data set [2] (100 μg/ml) it was 71 ×10^4 cells/ml. The “Infected cell (%)” value in data set [1] (setting [4]) came to 32%; in data set [1] (setting [5]), 1%.
As for Chitin [reference compound], the “Infected cell (%)” value in data set [1] (setting [4]) and in data set [1] (setting [5]) was 100% in each case.

The values above are taken from patent publication US5100879A, “Method of topically cleansing the human body” (K.K. Ueno Seiyaku Oyo Kenkyujo, priority 1987, dated 1992).
